# US10314308B2, “Microbiocidal benzoxaboroles” (SYNGENTA PARTICIPATIONS AG, priority 2015, dated 2019)
# Columns and labels:
# Gaeumannomyces Graminis = assay: Gaeumannomyces graminis / liquid culture (take-all of cereals); type: cell-based; conditions: PDB potato dextrose broth, 24° C., 4-5 days after application, read-out: disease control (inhibition of growth, photometrically)
# Experimental: (§1) 13 Gaeumannomyces Graminis/Liquid Culture (Take-all of Cereals) Mycelial fragments of the fungus from cryogenic storage were directly mixed into nutrient broth (PDB potato dextrose broth). After placing a DMSO solution of test compound into a 96-well microtiter plate, the nutrient broth containing the fungal spores is added. The test plates were incubated at 24° C. and the inhibition of growth was determined photometrically 4-5 days after application.
# [1] = tested on: Monographella Nivalis(Microdochium Nivale); assay: Monographella nivalis (Microdochium nivale) / liquid culture (foot rot cereals); type: cell-based; conditions: PDB potato dextrose broth, 24° C., 4-5 days after application, read-out: disease control (inhibition of growth, photometrically)
# Experimental: as §1, with “14 Monographella Nivalis(Microdochium Nivale)/Liquid” for “13 Gaeumannomyces Graminis/Liquid”, “(Foot Rot” for “(Take-all of”, “Conidia” for “Mycelial fragments”, “was” for “is”
# Fusarium Culmorum = assay: microbe, parasite or virus in culture; type: cell-based; conditions: read-out: disease control (inhibition of growth, photometrically)
# [2] = tested on: Mycosphaerella Graminicola(Septoria Tritici); assay: Mycosphaerella graminicola (Septoria tritici) / liquid culture (Septoria blotch); type: cell-based; conditions: Zymoseptoria tritici, PDB potato dextrose broth, 24° C., 4-5 days after application, read-out: disease control (inhibition of growth, photometrically)
# Experimental: as §1, with “12 Mycosphaerella Graminicola(Septoria Tritici)/Liquid” for “13 Gaeumannomyces Graminis/Liquid”, “(Septoria Blotch) Conidia” for “(Take-all of Cereals) Mycelial fragments”, “was” for “is”
# Pythium Ultimum = assay: Pythium ultimum / liquid culture (seedling damping off); type: cell-based; conditions: Globisporangium ultimum, potato dextrose broth, 24° C., 2-3 days after application, read-out: disease control (inhibition of growth, photometrically)
# [3] = tested on: Puccinia Recondita f. sp. Tritici; assay: Puccinia recondita f. sp. tritici / wheat / leaf disc preventative (brown rust); type: in vivo; conditions: foliar, wheat leaf segments cv Kanzler, inoculated 1 day after application, assessed 7-9 days after application, read-out: disease control
# Experimental: 3 Puccinia Recondita f. sp. Tritici/Wheat/Leaf Disc Preventative (Brown Rust) Wheat leaf segments cultivated variety (cv) Kanzler were placed on agar in 24-well plates and sprayed with formulated test compound diluted in water. The leaf disks were inoculated with a spore suspension of the fungus 1 day after application. The inoculated leaf segments were incubated at 19° C. and 75% relative humidity under a light regime of 12/12 h (light/dark) in a climate cabinet and the activity of a compound was assessed as percent disease control compared to untreated when an appropriate level of disease damage appears in untreated check leaf segments (7-9 days after application).
# Plasmopara Viticola = assay: whole plant or invertebrate; type: in vivo; conditions: foliar, read-out: disease control
# [4] = tested on: Thanatephorus Cucumeris(Rhizoctonia Solani); assay: Thanatephorus cucumeris (Rhizoctonia solani) / liquid culture (foot rot, damping-off); type: cell-based; conditions: PDB potato dextrose broth, 24° C., 3-4 days after application, read-out: disease control (inhibition of growth, photometrically)
# Experimental: 16 Thanatephorus Cucumeris(Rhizoctonia Solani)/Liquid Culture (Foot Rot, Damping-Off) Mycelia fragments of a newly grown liquid culture of the fungus were directly mixed into nutrient broth (PDB potato dextrose broth). After placing a DMSO solution of the test compounds into a 96-well microtiter plate at an application rate of 200 ppm, the nutrient broth containing the fungal material was added. The test plates were incubated at 24° C. and the inhibition of growth was determined photometrically 3-4 days after application.
# [5] = tested on: Glomerella Lagenarium(Colletotrichum Ladenarium); assay: Glomerella lagenarium (Colletotrichum lagenarium) / liquid culture (anthracnose); type: cell-based; conditions: PDB potato dextrose broth, 24° C., 3-4 days after application, read-out: disease control (inhibition of growth, photometrically)
# Experimental: as §1, with “10 Glomerella Lagenarium(Colletotrichum Ladenarium)/Liquid” for “13 Gaeumannomyces Graminis/Liquid”, “(Anthracnose) Conidia” for “(Take-all of Cereals) Mycelial fragments”, “was” for “is”, “measured” for “determined”, “3-4” for “4-5”
# [6] = tested on: Botryotinia Fuckeliana(Botrytis Cinerea); assay: Botryotinia fuckeliana (Botrytis cinerea) / liquid culture (gray mould); type: cell-based; conditions: Vogels broth, 24° C., 3-4 days after application, read-out: disease control (inhibition of growth, photometrically)
# Experimental: as §1, with “9 Botryotinia Fuckeliana(Botrytis Cinerea)/Liquid” for “13 Gaeumannomyces Graminis/Liquid”, “(Gray Mould) Conidia” for “(Take-all of Cereals) Mycelial fragments”, “(Vogels” for “(PDB potato dextrose”, “was” for “is”, “3-4” for “4-5”
# [7] = tested on: Phaeosphaeria Nodorum (Septoria Nodorum); assay: Phaeosphaeria nodorum (Septoria nodorum) / wheat / leaf disc preventative (glume blotch); type: in vivo; conditions: Parastagonospora nodorum, foliar, wheat leaf segments cv Kanzler, inoculated 2 days after application, assessed 5-7 days after application, read-out: disease control
# Experimental: 5 Phaeosphaeria Nodorum (Septoria Nodorum)/Wheat/Leaf Disc Preventative (Glume Blotch) Wheat leaf segments cv Kanzler were placed on agar in a 24-well plate and sprayed with formulated test compound diluted in water. The leaf disks were inoculated with a spore suspension of the fungus 2 days after application. The inoculated test leaf disks were incubated at 20° C. and 75% relative humidity under a light regime of 12/12 h (light/dark) in a climate cabinet and the activity of a compound was assessed as percent disease control compared to untreated when an appropriate level of disease damage appears in untreated check leaf disks (5-7 days after application).
# [8] = tested on: Mycosphaerella Arachidis(Cercospora Arachidicola); assay: Mycosphaerella arachidis (Cercospora arachidicola) / liquid culture (early leaf spot); type: cell-based; conditions: PDB potato dextrose broth, 24° C., 4-5 days after application, read-out: disease control (inhibition of growth, photometrically)
# Experimental: as §1, with “11 Mycosphaerella Arachidis(Cercospora Arachidicola)/Liquid” for “13 Gaeumannomyces Graminis/Liquid”, “(Early Leaf Spot) Conidia” for “(Take-all of Cereals) Mycelial fragments”, “was” for “is”
# Sclerotinia Sclerotiorum = assay: Sclerotinia sclerotiorum / liquid culture (cottony rot); type: cell-based; conditions: PDB potato dextrose broth, 24° C., 3-4 days after application, read-out: disease control (inhibition of growth, visually)
# Experimental: 17 Sclerotinia Sclerotiorum/Liquid Culture (Cottony Rot) Mycelia fragments of a newly grown liquid culture of the fungus were directly mixed into nutrient broth (PDB potato dextrose broth). After placing a (DMSO) solution of the test compounds into a microtiter plate (96-well format) the nutrient broth containing the fungal material was added. The test plates were incubated at 24° C. and the inhibition of growth was determined visually 3-4 days after application.
Structure (SMILES),inhibition at 20 ppm (Gaeumannomyces Graminis) [%],inhibition at 20 ppm [1] [%],inhibition at 20 ppm (Fusarium Culmorum) [%],inhibition at 20 ppm [2] [%],inhibition at 20 ppm (Pythium Ultimum) [%],pest or weed control at 200 ppm [3] [%],melting point [°C],pest or weed control at 200 ppm (Plasmopara Viticola) [%],inhibition at 20 ppm [4] [%],inhibition at 20 ppm [5] [%],inhibition at 20 ppm [6] [%],pest or weed control at 200 ppm [7] [%],inhibition at 20 ppm [8] [%],inhibition at 20 ppm (Sclerotinia Sclerotiorum) [%]
Cc1nc(C)c(-c2cc3c(cc2Cl)COB3O)s1 [Compound 1],≥ 80,≥ 80,≥ 80,≥ 80,≥ 80,≥ 80,155 to 160,≥ 80,,,,,,
"OB1OCc2cc(Cl)c(-c3ccco3)cc21 [Compound 2, 5-chloro-6-(2-furyl)-1-hydroxy-3H-2,1-benzoxaborole]",,≥ 80,≥ 80,≥ 80,≥ 80,,142 to 147,≥ 80,≥ 80,≥ 80,≥ 80,≥ 80,≥ 80,≥ 80
OB1OCc2cc(F)c(-c3cccs3)cc21 [Compound 6],≥ 80,≥ 80,≥ 80,≥ 80,≥ 80,≥ 80,134 to 140,≥ 80,≥ 80,≥ 80,≥ 80,,≥ 80,≥ 80
"OB1OCc2cc(F)c(-c3ccsc3)cc21 [Compound 12, 5-fluoro-1-hydroxy-6-(3-thienyl)-3H-2,1-benzoxaborole]",≥ 80,≥ 80,≥ 80,≥ 80,≥ 80,≥ 80,,≥ 80,≥ 80,,≥ 80,,≥ 80,≥ 80
OB1OCc2cc(Cl)c(-c3cncs3)cc21 [Compound 25],≥ 80,≥ 80,≥ 80,≥ 80,≥ 80,,,≥ 80,≥ 80,≥ 80,≥ 80,≥ 80,≥ 80,≥ 80
CO/N=C/c1ccc(-c2cc3c(cc2F)COB3O)o1 [Compound 28],,,,≥ 80,≥ 80,≥ 80,125 to 140,,,≥ 80,,,,
Cc1ccc(-c2cc3c(cc2Cl)COB3O)s1 [Compound 38],≥ 80,≥ 80,≥ 80,≥ 80,≥ 80,≥ 80,,≥ 80,≥ 80,≥ 80,≥ 80,,≥ 80,≥ 80
OB1OCc2ccc(-c3ncno3)cc21 [Compound 49],≥ 80,≥ 80,≥ 80,≥ 80,≥ 80,,179 to 180,≥ 80,≥ 80,≥ 80,≥ 80,≥ 80,≥ 80,≥ 80
Cc1cscc1-c1cc2c(cc1F)COB2O [Compound 50],≥ 80,≥ 80,≥ 80,≥ 80,≥ 80,,,≥ 80,≥ 80,≥ 80,≥ 80,≥ 80,≥ 80,≥ 80
Cc1cc(-c2cc3c(cc2Cl)COB3O)c(C#N)o1 [Compound 66],≥ 80,,,,≥ 80,≥ 80,,≥ 80,,,,,,
COc1nccc(-c2cc3c(cc2Cl)COB3O)c1Cl [Compound 73],≥ 80,≥ 80,≥ 80,≥ 80,≥ 80,≥ 80,,≥ 80,≥ 80,≥ 80,≥ 80,,≥ 80,≥ 80
Cc1cc(-c2cc3c(cc2Cl)COB3O)c(C)s1 [Compound 90],≥ 80,≥ 80,,≥ 80,≥ 80,≥ 80,,,≥ 80,≥ 80,,,≥ 80,
OB1OCc2ccc(-c3ncon3)cc21 [Compound 92],≥ 80,≥ 80,≥ 80,≥ 80,≥ 80,≥ 80,209 to 211,,≥ 80,≥ 80,≥ 80,,≥ 80,≥ 80
OB1OCc2cc(Cl)c(-c3ncon3)cc21 [Compound 96],≥ 80,≥ 80,≥ 80,≥ 80,≥ 80,≥ 80,180 to 203,,≥ 80,≥ 80,≥ 80,,≥ 80,≥ 80
